Measured values published in patent US20050070510A1, “Substituted tetracycline compounds as synergistic antifungal agents” (Paratek Pharmaceuticals, Inc., priority 2001, published 2005).

tested on: COS-1 cells; experiment: In vitro mammalian cytotoxicity assay (Resazurin)

Compound	In Vitro Cytotoxicity
CN(C)[C@@H]1C(O)=C(C(N)=O)C(=O)[C@@]2(C#N)C(O)=C3C(=O)c4c(O)c(-c5ccc6c(c5)OCO6)cc(-c5ccc6c(c5)OCO6)c4C[C@@]3(N)C[C@@]12N [LP]	** (toxicities less than 25 μg/mL are represented by **)
COc1ccc(CNC2CCCCC2)cc1-c1ccc(O)c2c1C[C@@]1(N)C[C@@]3(N)[C@H](N(C)C)C(O)=C(C(N)=O)C(=O)[C@@]3(C#N)C(O)=C1C2=O [LQ]	* (toxicities greater than >25 μg/ml are represented by *)
CCN(CC)Cc1ccc(OC)c(-c2ccc(O)c3c2C[C@@]2(N)C[C@@]4(N)[C@H](N(C)C)C(O)=C(C(N)=O)C(=O)[C@@]4(C#N)C(O)=C2C3=O)c1 [LR]	* (toxicities greater than >25 μg/ml are represented by *)
COc1ccc(CNC(C)C)cc1-c1ccc(O)c2c1C[C@@]1(N)C[C@@]3(N)[C@H](N(C)C)C(O)=C(C(N)=O)C(=O)[C@@]3(C#N)C(O)=C1C2=O [LS]	* (toxicities greater than >25 μg/ml are represented by *)
CCCNCc1ccc(OC)c(-c2ccc(O)c3c2C[C@@]2(N)C[C@@]4(N)[C@H](N(C)C)C(O)=C(C(N)=O)C(=O)[C@@]4(C#N)C(O)=C2C3=O)c1 [LV]	* (toxicities greater than >25 μg/ml are represented by *)
COc1ccc(CNCC(C)C)cc1-c1ccc(O)c2c1C[C@@]1(N)C[C@@]3(N)[C@H](N(C)C)C(O)=C(C(N)=O)C(=O)[C@@]3(C#N)C(O)=C1C2=O [LW]	* (toxicities greater than >25 μg/ml are represented by *)
CN(C)c1cc(CNCCc2ccccc2)c(O)c2c1C[C@@]1(N)C[C@@]3(N)[C@H](N(C)C)C(O)=C(C(N)=O)C(=O)[C@@]3(C#N)C(O)=C1C2=O [LX]	* (toxicities greater than >25 μg/ml are represented by *)
CCCCc1ccc(-c2cc(N(C)C)c3c(c2O)C(=O)C2=C(O)[C@]4(C#N)C(=O)C(C(N)=O)=C(O)[C@@H](N(C)C)[C@]4(N)C[C@]2(N)C3)cc1 [LY]	** (toxicities less than 25 μg/mL are represented by **)
CCc1ccc(-c2cc(N(C)C)c3c(c2O)C(=O)C2=C(O)[C@]4(C#N)C(=O)C(C(N)=O)=C(O)[C@@H](N(C)C)[C@]4(N)C[C@]2(N)C3)cc1 [LZ]	** (toxicities less than 25 μg/mL are represented by **)
CN(C)c1cc(-c2ccc(OC(F)(F)F)cc2)c(O)c2c1C[C@@]1(N)C[C@@]3(N)[C@H](N(C)C)C(O)=C(C(N)=O)C(=O)[C@@]3(C#N)C(O)=C1C2=O [MA]	** (toxicities less than 25 μg/mL are represented by **)
CN(C)[C@@H]1C(O)=C(C(N)=O)C(=O)[C@@]2(C#N)C(O)=C3C(=O)c4c(O)ccc(C(=O)Cc5ccccc5)c4C[C@@]3(N)C[C@@]12N [MB]	* (toxicities greater than >25 μg/ml are represented by *)
CN(C)c1cc(CNC(=O)NCC(C)(C)C)c(O)c2c1C[C@@]1(N)C[C@@]3(N)[C@H](N(C)C)C(O)=C(C(N)=O)C(=O)[C@@]3(C#N)C(O)=C1C2=O [MC]	* (toxicities greater than >25 μg/ml are represented by *)
C=CCCNC(=O)NCc1cc(N(C)C)c2c(c1O)C(=O)C1=C(O)[C@]3(C#N)C(=O)C(C(N)=O)=C(O)[C@@H](N(C)C)[C@]3(N)C[C@]1(N)C2 [MD]	* (toxicities greater than >25 μg/ml are represented by *)
CN(C)c1cc(CNC(=O)Nc2ccccc2)c(O)c2c1C[C@@]1(N)C[C@@]3(N)[C@H](N(C)C)C(O)=C(C(N)=O)C(=O)[C@@]3(C#N)C(O)=C1C2=O [ME]	* (toxicities greater than >25 μg/ml are represented by *)
CC(C)CNC(=O)NCc1cc(N(C)C)c2c(c1O)C(=O)C1=C(O)[C@]3(C#N)C(=O)C(C(N)=O)=C(O)[C@@H](N(C)C)[C@]3(N)C[C@]1(N)C2 [MF]	* (toxicities greater than >25 μg/ml are represented by *)
CCCCNC(=O)NCc1cc(N(C)C)c2c(c1O)C(=O)C1=C(O)[C@]3(C#N)C(=O)C(C(N)=O)=C(O)[C@@H](N(C)C)[C@]3(N)C[C@]1(N)C2 [MG]	* (toxicities greater than >25 μg/ml are represented by *)
CCNC(=O)NCc1cc(N(C)C)c2c(c1O)C(=O)C1=C(O)[C@]3(C#N)C(=O)C(C(N)=O)=C(O)[C@@H](N(C)C)[C@]3(N)C[C@]1(N)C2 [MH]	* (toxicities greater than >25 μg/ml are represented by *)
CN(C)c1cc(NCc2ccc3c(c2)OCO3)c(O)c2c1C[C@@]1(N)C[C@@]3(N)[C@H](N(C)C)C(O)=C(C(N)=O)C(=O)[C@@]3(C#N)C(O)=C1C2=O [MK]	** (toxicities less than 25 μg/mL are represented by **)
CC(C)CNCc1cc(N(C)C)c2c(c1O)C(=O)C1=C(O)[C@]3(C#N)C(=O)C(C(N)=O)=C(O)[C@@H](N(C)C)[C@]3(N)C[C@]1(N)C2 [ML]	* (toxicities greater than >25 μg/ml are represented by *)
CC(C)CNC(=N)Nc1cc(N(C)C)c2c(c1O)C(=O)C1=C(O)[C@]3(C#N)C(=O)C(C(N)=O)=C(O)[C@@H](N(C)C)[C@]3(N)C[C@]1(N)C2 [MM]	* (toxicities greater than >25 μg/ml are represented by *)
CN(C)c1cc(CCc2ccccc2)c(O)c2c1C[C@@]1(N)C[C@@]3(N)[C@H](N(C)C)C(O)=C(C(N)=O)C(=O)[C@@]3(C#N)C(O)=C1C2=O [MN]	** (toxicities less than 25 μg/mL are represented by **)

Compound	In Vitro Cytotoxicity
CCCCCC(=O)c1ccc(O)c2c1C[C@@]1(N)C[C@@]3(N)[C@H](N(C)C)C(O)=C(C(N)=O)C(=O)[C@@]3(C#N)C(O)=C1C2=O [MO]	** (toxicities less than 25 μg/mL are represented by **)
CCCCCN(CCCCC)Cc1cc(N(C)C)c2c(c1O)C(=O)C1=C(O)[C@]3(C#N)C(=O)C(C(N)=O)=C(O)[C@@H](N(C)C)[C@]3(N)C[C@]1(N)C2 [MP]	** (toxicities less than 25 μg/mL are represented by **)
CN(C)c1cc(NCc2ccc(OC(F)(F)F)cc2)c(O)c2c1C[C@@]1(N)C[C@@]3(N)[C@H](N(C)C)C(O)=C(C(N)=O)C(=O)[C@@]3(C#N)C(O)=C1C2=O [MQ]	** (toxicities less than 25 μg/mL are represented by **)
CN(C)c1cc(NCC2CCCCC2)c(O)c2c1C[C@@]1(N)C[C@@]3(N)[C@H](N(C)C)C(O)=C(C(N)=O)C(=O)[C@@]3(C#N)C(O)=C1C2=O [MR]	** (toxicities less than 25 μg/mL are represented by **)
CCCCCCOC(=O)NCc1cc(N(C)C)c2c(c1O)C(=O)C1=C(O)[C@]3(C#N)C(=O)C(C(N)=O)=C(O)[C@@H](N(C)C)[C@]3(N)C[C@]1(N)C2 [MS]	** (toxicities less than 25 μg/mL are represented by **)
COCCOC(=O)NCc1cc(N(C)C)c2c(c1O)C(=O)C1=C(O)[C@]3(C#N)C(=O)C(C(N)=O)=C(O)[C@@H](N(C)C)[C@]3(N)C[C@]1(N)C2 [MT]	* (toxicities greater than >25 μg/ml are represented by *)
Cc1ccc(OC(=O)NCc2cc(N(C)C)c3c(c2O)C(=O)C2=C(O)[C@]4(C#N)C(=O)C(C(N)=O)=C(O)[C@@H](N(C)C)[C@]4(N)C[C@]2(N)C3)cc1 [MU]	** (toxicities less than 25 μg/mL are represented by **)
CN(C)c1cc(CNC(=O)Oc2ccc(Br)cc2)c(O)c2c1C[C@@]1(N)C[C@@]3(N)[C@H](N(C)C)C(O)=C(C(N)=O)C(=O)[C@@]3(C#N)C(O)=C1C2=O [MV]	** (toxicities less than 25 μg/mL are represented by **)
CN(C)c1cc(CNC(=O)Nc2ccc(Cl)cc2)c(O)c2c1C[C@@]1(N)C[C@@]3(N)[C@H](N(C)C)C(O)=C(C(N)=O)C(=O)[C@@]3(C#N)C(O)=C1C2=O [MW]	** (toxicities less than 25 μg/mL are represented by **)
CN(C)c1cc(CNC(=O)NCC(Cl)(Cl)Cl)c(O)c2c1C[C@@]1(N)C[C@@]3(N)[C@H](N(C)C)C(O)=C(C(N)=O)C(=O)[C@@]3(C#N)C(O)=C1C2=O [MX]	** (toxicities less than 25 μg/mL are represented by **)
CN(C)c1cc(CNC(=O)Nc2ccc(F)cc2)c(O)c2c1C[C@@]1(N)C[C@@]3(N)[C@H](N(C)C)C(O)=C(C(N)=O)C(=O)[C@@]3(C#N)C(O)=C1C2=O [MY]	** (toxicities less than 25 μg/mL are represented by **)
CN(C)c1cc(CNC(=O)Nc2ccc3c(c2)OCO3)c(O)c2c1C[C@@]1(N)C[C@@]3(N)[C@H](N(C)C)C(O)=C(C(N)=O)C(=O)[C@@]3(C#N)C(O)=C1C2=O [MZ]	* (toxicities greater than >25 μg/ml are represented by *)
CC(=O)c1ccc(NC(=O)NCc2cc(N(C)C)c3c(c2O)C(=O)C2=C(O)[C@]4(C#N)C(=O)C(C(N)=O)=C(O)[C@@H](N(C)C)[C@]4(N)C[C@]2(N)C3)cc1 [NA]	* (toxicities greater than >25 μg/ml are represented by *)
CN(C)[C@@H]1C(O)=C(C(N)=O)C(=O)[C@@]2(C#N)C(O)=C3C(=O)c4c(O)ccc(C#CCCC#Cc5ccc(O)c6c5C[C@@]5(N)C[C@@]7(N)[C@H](N(C)C)C(O)=C(C(N)=O)C(=O)[C@@]7(C#N)C(O)=C5C6=O)c4C[C@@]3(N)C[C@@]12N [NC]	* (toxicities greater than >25 μg/ml are represented by *)
CN(C)c1ccc(NC(=O)NCc2cc(N(C)C)c3c(c2O)C(=O)C2=C(O)[C@]4(C#N)C(=O)C(C(N)=O)=C(O)[C@@H](N(C)C)[C@]4(N)C[C@]2(N)C3)cc1 [ND]	* (toxicities greater than >25 μg/ml are represented by *)
CN(C)c1cc(CNC(=O)Nc2ccc(OC(F)(F)F)cc2)c(O)c2c1C[C@@]1(N)C[C@@]3(N)[C@H](N(C)C)C(O)=C(C(N)=O)C(=O)[C@@]3(C#N)C(O)=C1C2=O [NE]	* (toxicities greater than >25 μg/ml are represented by *)
CCCCCOC(=O)NCc1cc(N(C)C)c2c(c1O)C(=O)C1=C(O)[C@]3(C#N)C(=O)C(C(N)=O)=C(O)[C@@H](N(C)C)[C@]3(N)C[C@]1(N)C2 [NF]	** (toxicities less than 25 μg/mL are represented by **)
COc1ccc(CNCc2cccc(F)c2)cc1-c1ccc(O)c2c1C[C@@]1(N)C[C@@]3(N)[C@H](N(C)C)C(O)=C(C(N)=O)C(=O)[C@@]3(C#N)C(O)=C1C2=O [NG]	** (toxicities less than 25 μg/mL are represented by **)
COc1ccc(CNCCc2ccccc2)cc1-c1ccc(O)c2c1C[C@@]1(N)C[C@@]3(N)[C@H](N(C)C)C(O)=C(C(N)=O)C(=O)[C@@]3(C#N)C(O)=C1C2=O [NH]	** (toxicities less than 25 μg/mL are represented by **)
CC#Cc1cc(C#CC)c2c(c1O)C(=O)C1=C(O)[C@]3(C#N)C(=O)C(C(N)=O)=C(O)[C@@H](N(C)C)[C@]3(N)C[C@]1(N)C2 [NI]	** (toxicities less than 25 μg/mL are represented by **)
